# According to US4473581A (priority 1979, dated 1984):
# Structures can show the parent of a compound that is named as a salt.
# Legend:
# [1] = background statement on known inducers; cited from earlier work
# [2] = tested on: vesicular stomatitis virus (VSV) in L-1D cells; assay type: cell-based
# [3] = tested on: vesicular stomatitis virus (VSV) in human embryonic lung cells; assay type: cell-based; conditions: human serum, 75 mg/kg oral
# [4] = tested on: vesicular stomatitis virus (VSV) in L-1D cells; assay type: cell-based; remark: listed apart in the source
# FM-3A cells = assay: Growth inhibition of FM-3A tumor cells co-cultured with macrophages from Ge treated mice; assay type: cell-based; conditions: 48 hours
# Protocol: It is known that interferon has the ability to convert a standing macrophage into a tumoricidal macrophage, deemed activated macrophage (A-M.phi.), either in vivo or in vitro. Since the Ge induced the formation of immune interferon in vivo, it was expected that A-M: would be induced in the Ge treated animal.
# Peritoneal exudate cells obtained from mice 72 hours after treatment with a 300 mg/kg dose of Ge were cultured for 20 minutes in a petri dish utilizing RPMI-1640 medium supplemented with 10% fetal calf serum. Cells adhering to the petri dish, obtained by washing with the same culture medium, were separately co-cultured with FM-3A cells as the target tumor cells, in a ratio of 10:1. FM-3A cells were cultured singly, or with macrophages derived from normal mice, as the control. In each run, the growth of FM-3A cells was monitored. A determination of the number of FM-3A cells was carried out per the dye exclusion test using Trypan-Blue. […] Thus, it is apparent that Ge induces the formation of A-M: in live mice.
# [5] = tested on: Ehrlich ascites tumor cells; assay: Anti-tumor activity of peritoneal exudate cells from Ge treated mice on Ehrlich ascites tumor bearing mice; assay type: in vivo, DDI mice; conditions: peritoneal exudate cells from mice given 300 mg/kg Ge, six days i.p. (FIG. 3)
# Protocol: An anti-tumor activity test of peritoneal exudate cells obtained from mice treated with Ge in a dosage amount of 300 mg/kg was conducted on Ehrlich ascites tumor bearing mice.
# 1×10^5 cells/mouse of Ehrlich ascites tumor cells were transplanted into the peritoneal cavity of DDI mice. Twenty-four hours later, these mice were intraperitoneally supplied with 5×10^3 peritoneal exudate cells obtained from mice treated with Ge once daily for six consecutive days. Peritoneal exudate cells obtained from saline injected mice were likewise supplied to tumor bearing mice as a control.
# MEP-II tumor cells = assay: Anti-tumor effect of oral Ge in MEP-II tumor bearing mice; assay type: in vivo, DDI mice; conditions: 100 and 300 mg/kg oral, once daily, seven days
# Protocol: 4×10^3 MEP-II tumor cells were transplanted intraperitoneally in DDI mice as described above. Twenty-four hours later, Ge was orally administered, once daily for seven consecutive days at a daily dosage of 100 or 300 mg/kg to ascertain any anti-tumor effect. In a control group, 0.2 ml of physiological saline solution was orally administered, also once daily for seven days.
# interferon = assay: Interferon induction in healthy volunteers; assay type: in vivo; conditions: human
# Protocol: Capsules of Ge were orally administered to eight healthy volunteers, 21 to 23 years old. The dose administered to one group (two men and two women) was 75 mg/kg and that administrated to the other group (two men and two women) was 25 mg/kg. Serum samples were collected at predetermined intervals, the interferon titers were determined, and the results reflected in FIGS. 4 and 5 were obtained. […] The reported results thus evidence that Ge induces A-M.phi. in humans as well as in mice.
# [6] = Acute toxicity (LD50) in mice; conditions: mouse, in vivo
# [7] = Acute toxicity (LD50) in rats; conditions: rat, in vivo
# rats = assay: Chronic toxicity test in rats, oral, six months; conditions: six months, 30, 300 or 3000 mg/kg per day
# dogs = assay: Chronic toxicity in dogs, intravenous, six months; conditions: 500 mg/kg per day
# [8] = intravenous injection, larger than any physically practicable maximum amount
compound,measurement,setting,value
CCCCCCCCCCCCCCCCCCN(CCCCCCCCCCCCCCCCCC)CCCN(CCO)CCO [CP-20961],adverse side effects,[1],one or more adverse side effects
O=C(O)C[CH2][Ge](=[O])[O][Ge](=[O])[CH2]CC(=O)O [Ge],viral infection inhibitory activity in serum,"[2]; mice, 300 mg/kg oral, 25 hours after administration (FIG. 1)",viral infection inhibitory activity was detected
same,dose dependency of viral infection inhibitory activity,"[2]; mice, oral, varied doses (FIG. 2)",dose dependent
same,species specificity of induced viral infection inhibitory factor,"[2]; mouse and human sera compared on L-1D, human embryonic lung and chicken embryonic cells",species specific
same,"antiviral activity of induced agent, L-1D cells (in words)","[2]; mouse serum, 300 mg/kg oral",displayed resistance to viral infection only in the L-1D cells
same,"antiviral activity of induced agent, human cells (in words)",[3],displayed antiviral activity only in human cells
same,stability of induced factor to heat and acid (in words),"[4]; mouse serum, 56° C. one hour, acidification to pH 2.0",unstable to thermal treatment at 56 °C for one hour and also to acidification to pH 2.0
same,trypsin lability of induced factor (in words),"[4]; mouse serum, trypsin 37° C., 3 hours",trypsin labile
same,type of interferon induced,"[4]; mouse serum, from thermal and acid treatments",immune (type II) interferon
same,growth of FM-3A cells (in words),FM-3A cells,prominently inhibited
same,anti-tumor activity of macrophage activated by Ge treatment (in words),[5],marked anti-tumor activity
same,anti-tumor activity (in words),MEP-II tumor cells,both dosage amounts of Ge exhibited anti-tumor activity
same,production of interferon,interferon; 25 mg/kg oral capsules (FIGS. 4 and 5),"production of interferon was observed, although the level was lower"
same,production of interferon,interferon; 75 mg/kg oral capsules (FIGS. 4 and 5),significant production of interferon was observed in each case
O=C(O)C[CH2][Ge](=[O])[O][Ge](=[O])[CH2]CC(=O)O [carboxyethyl germanium sesquioxide],LD50,[6]; [8],> 1000 mg/kg
same,LD50,[6]; oral,> 6300 mg/kg
same,LD50,[7]; [8],> 1000 mg/kg
same,LD50,[7]; oral,> 10000 mg/kg
same,death in chronic toxicity test,rats,no rat died
same,pathological disorder in chronic toxicity test,rats,no pathological disorder was observed
same,toxicity,dogs,no toxicity was found
"double-stranded complex polyriboinosinic acid and polyribocytidylic acid [Poly 1-C, reference compound]",Interferon Titer,[4]; pH 2,640
same,Remaining amount of titer,[4]; pH 2,100%
CCN(CC)CCOc1ccc2c(c1)C(=O)c1cc(OCCN(CC)CC)ccc1-2 [tilorone hydrochloride],adverse side effects,[1],one or more adverse side effects
